Legend:
[1] = system: double-stranded DNA of the region from −77 to −70 containing the AP-1 binding site of the human matrix metalloproteinase-9 promoter; experiment: Gel shift assay (EMSA), AP-1 site oligonucleotide; settings: 10 μM polyamide, 0.6 μM fluorescently labeled double-stranded DNA, 37° C., 1 hour
Protocol: (§1) Oligonucleotides were synthesized and annealed to form 2 kinds of double-stranded oligonucleotides corresponding to the promoter base pairs against HMMP9AP1 and HMMP9NFκβ. One single-stranded oligonucleotide was labeled with FITC and hybridized with another single-stranded oligonucleotide as a complementary sequence to prepare double-stranded DNA. Specifically, nucleotides having the following nucleotide sequences were prepared: HMMP9AP1 (match) sense primer (5′[…]) (SEQ ID NO: 8) corresponding to the region from −77 to −70 containing the AP-1 binding site; this sequence plus 2-base mutation, i.e., HMMP9AP1 oligo DNA (mismatch 1) sense primer (5′[…]) (SEQ ID NO: 9); HMMP9NFκβ (match) sense primer (5′[…]) (SEQ ID NO: 10) containing the region from −605 to −599 containing the NFκβ binding site; this sequence plus 2-base mutation, i.e., HMMP9NFκβ (mismatch 1) sense primer (5′[…]) (SEQ ID NO: 11); and antisense primers respectively complementary to these 4 primers. […] The obtained complexes were electrophoresed on a 20% polyacrylamide gel, and the mobilities of the fluorescently labeled double-stranded oligonucleotides were analyzed with a fluorescent image analyzer (FUJIFILM, LAS-4000, Tokyo, Japan). […]

[2] = system: double-stranded DNA of the region from −605 to −599 containing the NFκβ binding site of the human matrix metalloproteinase-9 promoter; experiment: Gel shift assay (EMSA), NFκβ site oligonucleotide; settings: 10 μM polyamide, 0.6 μM fluorescently labeled double-stranded DNA, 37° C., 1 hour
Protocol: as §1

binding to target double-stranded DNA (mobility versus lanes containing only DS) [1]	binding to target double-stranded DNA (mobility versus lanes containing only DS) [2]	Structure (SMILES)
lower mobility		CC(=O)Nc1cn(C)c(C(=O)Nc2cc(C(=O)NCCC(=O)Nc3cn(C)c(C(=O)Nc4cc(C(=O)Nc5cc(C(=O)NCCCC(=O)Nc6cn(C)c(C(=O)Nc7cn(C)c(C(=O)Nc8cc(C(=O)NCCC(=O)Nc9cn(C)c(C(=O)Nc%10cc(C(=O)NCCC(=O)NCCCN(C)C)n(C)c%10)n9)n(C)c8)n7)n6)n(C)c5)n(C)c4)n3)n(C)c2)n1 [HMMP9AP1]
	lower mobility	CC(=O)Nc1cc(C(=O)Nc2cc(C(=O)NCCC(=O)Nc3cc(C(=O)Nc4cc(C(=O)NCCCC(=O)Nc5cn(C)c(C(=O)Nc6cn(C)c(C(=O)NCCC(=O)Nc7cc(C(=O)Nc8cc(C(=O)NCCC(=O)NCCCN(C)C)n(C)c8)n(C)c7)n6)n5)n(C)c4)n(C)c3)n(C)c2)n(C)c1 [HMMP9NFκβ]

Reference: US20110046070A1, “GENE EXPRESSION INHIBITOR SELECTIVE FOR MATRIX METALLOPROTEINASE-9 GENE” (priority 2008, published 2011)
